The data set deals with CCRIS mutagenicity, Ames/micronucleus/aberration tests. Nature of the data set: CCRIS mutagenicity studies.
Setting [1] is: Test System: AMES SALMONELLA TYPHIMURIUM, Strain/Indicator: TA98, Metabolic Activation: NONE, Method: PREINCUBATION
Where [2] appears, read: Test System: AMES SALMONELLA TYPHIMURIUM, Strain/Indicator: TA98, Metabolic Activation: RAT, LIVER, S-9, AROCLOR 1254, Method: PREINCUBATION
Where [3] appears, read: Test System: AMES SALMONELLA TYPHIMURIUM, Strain/Indicator: TA100, Metabolic Activation: NONE, Method: PREINCUBATION
Setting [4] is: Test System: AMES SALMONELLA TYPHIMURIUM, Strain/Indicator: TA100, Metabolic Activation: RAT, LIVER, S-9, AROCLOR 1254, Method: PREINCUBATION
Where [5] appears, read: Test System: AMES SALMONELLA TYPHIMURIUM, Strain/Indicator: TA98, Metabolic Activation: NONE, Method: STANDARD PLATE.
Setting [6] is: Test System: AMES SALMONELLA TYPHIMURIUM, Strain/Indicator: TA98, Metabolic Activation: RAT, LIVER, S-9, AROCLOR 1254, Method: STANDARD PLATE.
Where [7] appears, read: Test System: AMES SALMONELLA TYPHIMURIUM, Strain/Indicator: TA100, Metabolic Activation: NONE, Method: STANDARD PLATE.
Setting [8] is: Test System: AMES SALMONELLA TYPHIMURIUM, Strain/Indicator: TA1537, Metabolic Activation: NONE, Method: STANDARD PLATE.

Calls of active or inactive are those of the source. No rule for the calls is given here.

As to `CNc1ccc2ncc(C)nc2c1N`, the mutagenic call by setting is: under setting [1], “inactive; negative”; under setting [2], “inactive; negative”; under setting [3], “inactive; negative”; under setting [4], “inactive; negative”.
For the compound `N#[N+]c1cnc([O-])[nH]c1=O`, the mutagenic call runs as follows: under setting [1], “active; positive”; under setting [2], “active; positive”; under setting [3], “active; positive”; under setting [4], “active; positive”.
`O=c1c2c(O)cccc2oc2c3c(cc(O)c12)O[C@H]1OCC[C@@H]31`: the mutagenic call (Test System: AMES SALMONELLA TYPHIMURIUM, Strain/Indicator: TA98, Metabolic Activation: RAT, LIVER, S-9, PHENOBARBITAL, Method: STANDARD PLATE) was “inactive; negative” and the mutagenic call (Test System: AMES SALMONELLA TYPHIMURIUM, Strain/Indicator: TA100, Metabolic Activation: RAT, LIVER, S-9, PHENOBARBITAL, Method: STANDARD PLATE) was “inactive; negative”.
As to `Cc1c(N)cc([N+](=O)[O-])c(N)c1C`, the mutagenic call runs as follows: under setting [5], “active; positive”; under setting [6], “active; positive”; under setting [7], “inactive; negative”; (Test System: AMES SALMONELLA TYPHIMURIUM, Strain/Indicator: TA100, Metabolic Activation: RAT, LIVER, S-9, AROCLOR 1254, Method: STANDARD PLATE) “inactive; negative”; (Test System: AMES SALMONELLA TYPHIMURIUM, Strain/Indicator: TA1535, Metabolic Activation: NONE, Method: STANDARD PLATE) “inactive; negative”; (Test System: AMES SALMONELLA TYPHIMURIUM, Strain/Indicator: TA1535, Metabolic Activation: RAT, LIVER, S-9, AROCLOR 1254, Method: STANDARD PLATE) “inactive; negative”. The mutagenic call under setting [8] is “inactive; negative”; the mutagenic call (Test System: AMES SALMONELLA TYPHIMURIUM, Strain/Indicator: TA1537, Metabolic Activation: RAT, LIVER, S-9, AROCLOR 1254, Method: STANDARD PLATE) is “inactive; negative”; the mutagenic call (Test System: AMES SALMONELLA TYPHIMURIUM, Strain/Indicator: TA1538, Metabolic Activation: NONE, Method: STANDARD PLATE) is “active; positive”; the mutagenic call (Test System: AMES SALMONELLA TYPHIMURIUM, Strain/Indicator: TA1538, Metabolic Activation: RAT, LIVER, S-9, AROCLOR 1254, Method: STANDARD PLATE) is “active; positive”.
With `Nc1cccc2nc3c(N)cccc3nc12`, the mutagenic call under setting [1] is “active; positive” and the mutagenic call (Test System: AMES SALMONELLA TYPHIMURIUM, Strain/Indicator: TA98, Metabolic Activation: RAT, LIVER, S-9, PCB, Method: PREINCUBATION) was “inactive; negative”.
On to `CC(=O)N(Nc1ccc2c(c1)Cc1ccccc1-2)c1ccc2c(c1)Cc1ccccc1-2`, for which the mutagenic call under setting [6] is “active; positive”.
As for `c1cc[n+]2c(c1)-c1cccc[n+]1CC2`, the mutagenic call by setting is: (Test System: AMES SALMONELLA TYPHIMURIUM, Strain/Indicator: TA102, Metabolic Activation: NONE, Method: STANDARD PLATE) “inactive; negative”; (Test System: AMES SALMONELLA TYPHIMURIUM, Strain/Indicator: TA2638, Metabolic Activation: NONE, Method: STANDARD PLATE) “inactive; negative”; (Test System: E. COLI, Strain/Indicator: WP2 (PKM101), Metabolic Activation: NONE, Method: STANDARD PLATE) “inactive; negative”; (Test System: E. COLI, Strain/Indicator: WP2 UVRA (PKM101), Metabolic Activation: NONE, Method: STANDARD PLATE) “inactive; negative”.
On to `COc1cccc2c1C(=O)c1c(O)c3c(c(O)c1C2=O)C[C@@](O)(C(C)=O)C[C@@H]3O[C@H]1C[C@H](NCc2ccccc2)[C@H](O)[C@H](C)O1`, for which the mutagenic call (Test System: UDS RAT HEPATOCYTES, Strain/Indicator: THY INCORP, Metabolic Activation: NONE, Method: AUTOMATIC COLONY COUNTER) was “active; positive”.
As to `O=c1[nH]sc2cc([N+](=O)[O-])ccc12`, the mutagenic call under setting [7] is “active; positive”.
For the compound `CCOc1ccc(NC(N)=O)cc1`, the mutagenic call is, setting by setting: (Test System: AMES SALMONELLA TYPHIMURIUM, Strain/Indicator: TA98, Metabolic Activation: HAMSTER, LIVER, S-9, AROCLOR 1254, Method: PREINCUBATION) “inactive; negative”; under setting [1], “inactive; negative”; under setting [2], “inactive; negative”; (Test System: AMES SALMONELLA TYPHIMURIUM, Strain/Indicator: TA100, Metabolic Activation: HAMSTER, LIVER, S-9, AROCLOR 1254, Method: PREINCUBATION) “inactive; negative”; under setting [3], “inactive; negative”; under setting [4], “inactive; negative”. In addition, the mutagenic call reads like this: (Test System: AMES SALMONELLA TYPHIMURIUM, Strain/Indicator: TA1535, Metabolic Activation: HAMSTER, LIVER, S-9, AROCLOR 1254, Method: PREINCUBATION) “inactive; negative”; (Test System: AMES SALMONELLA TYPHIMURIUM, Strain/Indicator: TA1535, Metabolic Activation: NONE, Method: PREINCUBATION) “inactive; negative”; (Test System: AMES SALMONELLA TYPHIMURIUM, Strain/Indicator: TA1535, Metabolic Activation: RAT, LIVER, S-9, AROCLOR 1254, Method: PREINCUBATION) “inactive; negative”; (Test System: AMES SALMONELLA TYPHIMURIUM, Strain/Indicator: TA1537, Metabolic Activation: HAMSTER, LIVER, S-9, AROCLOR 1254, Method: PREINCUBATION) “inactive; negative”; (Test System: AMES SALMONELLA TYPHIMURIUM, Strain/Indicator: TA1537, Metabolic Activation: NONE, Method: PREINCUBATION) “inactive; negative”; (Test System: AMES SALMONELLA TYPHIMURIUM, Strain/Indicator: TA1537, Metabolic Activation: RAT, LIVER, S-9, AROCLOR 1254, Method: PREINCUBATION) “inactive; negative”.
Take `CN(C)CCNC(=O)c1cccc2c1Oc1ccccc1O2`: the mutagenic call under setting [8] is “active; positive”.
Take `Cc1cccc(C)c1NO`: the mutagenic call under setting [3] was “active; positive” and the mutagenic call (Test System: AMES SALMONELLA TYPHIMURIUM, Strain/Indicator: TA100, Metabolic Activation: RAT, LIVER, S-9, PCB, Method: PREINCUBATION) was “active; positive”.
Take `CC1Cc2cccc3c2N1C(C)C3.CC1Cc2cccc3c2N1C(C)C3.[Cl-].[Cl-].[Cl-].[Cl-].[Pt+2].[Pt+2]` (configuration not stated): the mutagenic call reads like this: (Test System: AMES SALMONELLA TYPHIMURIUM, Strain/Indicator: TA92, Metabolic Activation: NONE, Method: STANDARD PLATE) “inactive; negative”; under setting [5], “inactive; negative”; under setting [7], “inactive; negative”; (Test System: AMES SALMONELLA TYPHIMURIUM, Strain/Indicator: TA2410, Metabolic Activation: NONE, Method: STANDARD PLATE) “inactive; negative”; (Test System: E. COLI, Strain/Indicator: TM6, Metabolic Activation: NONE, Method: STANDARD PLATE) “inactive; negative”; (Test System: E. COLI, Strain/Indicator: TM9, Metabolic Activation: NONE, Method: STANDARD PLATE) “inactive; negative”.
Consider `O[C@@H]1C=Cc2c(ccc3c2sc2ccccc23)[C@H]1O`, for which, under setting [4], the mutagenic call is “active; positive”.
As for `O=C1NCCN1/N=C/c1ccc([N+](=O)[O-])o1`, the mutagenic call is “active; positive” (Test System: AMES SALMONELLA TYPHIMURIUM, Strain/Indicator: TA98, Metabolic Activation: NONE); “inactive; negative” (Test System: AMES SALMONELLA TYPHIMURIUM, Strain/Indicator: TA98, Metabolic Activation: S-9); “active; positive” (Test System: AMES SALMONELLA TYPHIMURIUM, Strain/Indicator: TA100, Metabolic Activation: NONE); “active; positive” (Test System: AMES SALMONELLA TYPHIMURIUM, Strain/Indicator: TA100, Metabolic Activation: S-9).
For `c1cnc2c(c1)CCC1OC21` (configuration not stated), the mutagenic call is, setting by setting: under setting [7], “inactive; negative”; (Test System: AMES SALMONELLA TYPHIMURIUM, Strain/Indicator: TA100, Metabolic Activation: RAT, LIVER, S-9, AROCLOR 1254 (10 OR 20%), Method: STANDARD PLATE) “inactive; negative”.

(Values after PubChem BioAssay AID1259407 (Chemical Carcinogenesis Research Information System (CCRIS), 2018).)
